These results are taken from patent publication US20250064789A1, “KETOAMIDE DERIVATIVES AND PHARMACEUTICAL USES THEREOF” (priority 2022, published 2025).

Type in all cases: cell-based
Experiment [1] relates to SARS-CoV-2 (B.1.1.529) BA.1 mutant strains. Description: Antiviral activity at the cellular level by RT-qPCR in Vero E6-TMPRSS2 cells. On the technique in general: Quantitative PCR measures a nucleic acid by following its amplification.
Experiment [2] relates to SARS-CoV-2 Alpha (B.1.1.7) mutant strains. The experiment in a line: Antiviral activity by plaque method in Vero E6-TMPRSS2 cells: SARS-CoV-2 Alpha.
Experiment [3] deals with SARS-CoV-2 Beta (B.1.351) mutant strains. Description: Antiviral activity by plaque method in Vero E6-TMPRSS2 cells: SARS-CoV-2 Beta.

In the case of `COC[C@@H](NC(=O)C1CCC(F)(F)CC1)C(=O)N[C@H](Cc1ccccc1)C(=O)C(=O)NCc1nccs1` [Compound 395], the “inhibitory activity on replication of SARS-CoV-2 (B.1.1.529) in Vero E6-TMPRSS2 cells (in words)” value in experiment [1] is recorded as “better inhibitory activity”.

Consider `COC[C@@H](NC(=O)C1CCCC(F)(F)C1)C(=O)N[C@H](Cc1ccccc1)C(=O)C(=O)NCc1nccs1` (stereo partly drawn) [Compound 398, N—((R)-1-(((R)-3,4-dioxo-1-phenyl-4-((thiazole-2-ylmethyl)amino)butan-2-yl)amino)-3-methoxy-1-oxopropan-2-yl)-3,3-difluorocyclohexane-1-formamide], for which the “inhibitory activity on replication of SARS-CoV-2 (B.1.1.529) in Vero E6-TMPRSS2 cells (in words)” value in experiment [1] is given as “better inhibitory activity”. Also, the “anti-viral activity, times higher than Nirmatrelvir (PF-07321332)” value in experiment [2] was 40.95 times; in experiment [3] it was 10.16 times.
